Structures can show the parent of a compound that is named as a salt.

The first test has as its system IL-2 production. Briefly: Inhibition of IL-2 production in PHA-activated Jurkat cells (ELISA). It is filed as cell-based. The following applies: Homo sapiens, Jurkat, 20 h, PHA 2.5 μg/mL, IL-2 ELISA. As for the experimental part: Jurkat cells were placed in a 96 well plate (0.5 million cells per well in 1% FBS medium) then a test compound of this invention was added at different concentrations. After 10 minutes, the cells were activated with PHA (final concentration 2.5 μg/mL) and incubated for 20 hours at 37° C. under CO2. The final volume was 200 μL. Following incubation, the cells were centrifuged and the supernatants collected and stored at −70° C. prior to assaying for IL-2 production. A commercial ELISA kit (IL-2 Eli-pair, Diaclone Research, Besancon, France) was used to detect production of IL-2, from which dose response curves were obtained.
On to `C=C(C)c1nc(NC(=O)c2c(F)cccc2F)sc1-c1cccc(C(F)(F)F)c1` [Compound 68a, 2,6-difluoro-N-(4-(prop-1-en-2-yl)-5-(3-(trifluoromethyl)phenyl)thiazol-2-yl)benzamide], for which the IC50 was 50 to 100 nM.

Regarding `CN(C)c1ccc(-c2nc(NC(=O)c3c(F)cccc3F)sc2-c2cccc(C(F)(F)F)c2)cc1` [Compound 110, N-(4-(4-(Dimethylamino)phenyl)-5-(3-(trifluoromethyl)phenyl)thiazol-2-yl)-2,6-difluorobenzamide], the half-maximal inhibitory concentration (IC50) is greater than 1000 nM.

`N#Cc1nc(NC(=O)c2c(F)cccc2F)sc1-c1cccc(C(F)(F)F)c1` [Compound 73, N-(4-Cyano-5-(3-(trifluoromethyl)phenyl)thiazol-2-yl)-2,6-difluorobenzamide] registered an IC50 of 200 to 500 nM.

Regarding `Cc1nc(NC(=O)c2cccnc2F)sc1-c1cccc(C(F)(F)F)c1` [Compound 50, 2-Fluoro-N-(4-methyl-5-(3-(trifluoromethyl)phenyl)thiazol-2-yl)nicotinamide], the IC50 was in the range of 200 to 500 nM.

`Cc1nc(C(=O)Nc2c(F)cccc2F)sc1-c1cc(C(F)(F)F)ccc1Cl` [Compound 119, 5-(2-chloro-5-(trifluoromethyl)phenyl)-N-(2,6-difluorophenyl)-4-methylthiazole-2-carboxamide] yielded an IC50 of 200 to 500 nM.

For the molecule `O=C(Nc1c(F)cccc1F)c1cnc(-c2cccc(-c3ncco3)c2)s1` [Compound 124, N-(2,6-difluorophenyl)-2-(3-(oxazol-2-yl)phenyl)thiazole-5-carboxamide], the half-inhibitory concentration (IC50) was greater than 1000 nM.

Regarding `O=C(Nc1c(F)cccc1F)c1ncc(-c2cc(C(F)(F)F)ccc2Cl)s1` [Compound 129, 5-(2-chloro-5-(trifluoromethyl)phenyl)-N-(2,6-difluorophenyl)thiazole-2-carboxamide], the IC50 is less than 30 nM.

In turn, `Cc1nc(NC(=O)c2c(F)cccc2F)sc1-c1ccc(Br)s1` [Compound 59, N-(5-(5-Bromothiophen-2-yl)-4-methylthiazol-2-yl)-2,6-difluorobenzamide] yielded a concentration for half-maximal inhibition (IC50) of 100 to 200 nM.

`CC(O)c1nc(NC(=O)c2c(F)cccc2F)sc1-c1cccc(C(F)(F)F)c1` (centres unmarked) [Compound 74, 2,6-Difluoro-N-(4-(1-hydroxyethyl)-5-(3-(trifluoromethyl)phenyl)thiazol-2-yl)benzamide] showed an IC50 greater than 1000 nM.

As to `Cc1cnccc1NC(=O)c1nc(C)c(-c2cccc(C(F)(F)F)c2)s1` [Compound 120, 4-methyl-N-(3-methylpyridin-4-yl)-5-(3-(trifluoromethyl)phenyl)thiazole-2-carboxamide], the IC50 is greater than 1000 nM.

`Cc1nnsc1C(=O)Nc1nc(C)c(-c2cccc(C(F)(F)F)c2)s1` [Compound 12, 4-Methyl-[1,2,3]thiadiazole-5-carboxylic acid [4-methyl-5-(3-trifluoromethyl-phenyl)-thiazol-2-yl]-amide] gave a half-maximal inhibitory concentration (IC50) greater than 1000 nM.

`Cc1nc(C(=O)Nc2c(F)cccc2F)sc1-c1cccc(-c2nnco2)c1` [Compound 118, 5-(3-(1,3,4-oxadiazol-2-yl)phenyl)-N-(2,6-difluorophenyl)-4-methylthiazole-2-carboxamide] returned an IC50 of 200 to 500 nM.

On to `Cc1nc(C)c(-c2nc(NC(=O)c3c(F)cccc3F)sc2-c2cccc(C(F)(F)F)c2)o1` [Compound 81, N-(4-(2,4-dimethyloxazol-5-yl)-5-(3-(trifluoromethyl)phenyl)thiazol-2-yl)-2,6-difluorobenzamide], for which the IC50 was greater than 1000 nM.

Consider `Cc1nc(-c2nc(NC(=O)c3c(F)cccc3F)sc2-c2cccc(C(F)(F)F)c2)cs1` [Compound 86, 2,6-Difluoro-N-(2′-methyl-5-(3-(trifluoromethyl)phenyl)-4,4′-bithiazol-2-yl)benzamide], for which the IC50 was in the range of 200 to 500 nM.

On to `COC(=O)c1cccc(-c2sc(C(=O)Nc3c(F)cccc3F)nc2C)c1` [Compound 117, methyl 3-(2-(2,6-difluorophenylcarbamoyl)-4-methylthiazol-5-yl)benzoate], for which the IC50 was 100 to 200 nM.

`O=C(Nc1c(F)cccc1F)c1cnc(-c2cc(-c3nccs3)ccc2Cl)s1` [Compound 125, 2-(2-chloro-5-(thiazol-2-yl)phenyl)-N-(2,6-difluorophenyl)thiazole-5-carboxamide] displayed an IC50 of 200 to 500 nM.

For the molecule `CC(=O)c1nc(NC(=O)c2c(F)cccc2F)sc1-c1cccc(C(F)(F)F)c1` [Compound 84, N-(4-Acetyl-5-(3-(trifluoromethyl)phenyl)thiazol-2-yl)-2,6-difluorobenzamide], the IC50 lay in the range of 200 to 500 nM.

Molecule `Cc1cnccc1C(=O)Nc1nc(C2CC2)c(-c2cccc(C(F)(F)F)c2)s1` [Compound 53, N-(4-cyclopropyl-5-(3-(trifluoromethyl)phenyl)thiazol-2-yl)-3-methylisonicotinamide] showed an IC50 of 50 to 100 nM.

In the case of `Cn1nnc(-c2cccc(-c3cnc(NC(=O)c4c(F)cccc4F)s3)c2)n1` [Compound 7, 2,6-Difluoro-N-{5-[3-(2-methyl-2H-tetrazol-5-yl)-phenyl]-thiazol-2-yl}-benzamide], the 50% inhibitory concentration (IC50) is greater than 1000 nM.

Molecule `N#Cc1cccc(-c2cnc(NC(=O)c3c(F)cccc3F)s2)c1` [Compound 6, N-[5-(3-Cyano-phenyl)-thiazol-2-yl]-2,6-difluoro-benzamide] returned an IC50 greater than 1000 nM.

Consider `NC(=O)c1nc(NC(=O)c2c(F)cccc2F)sc1-c1cccc(C(F)(F)F)c1` [Compound 97, 2-(2,6-Difluorobenzamido)-5-(3-(trifluoromethyl)phenyl)thiazole-4-carboxamide], for which the IC50 was greater than 1000 nM.

In turn, `COc1ccc(OC)c(-c2csc(NC(=O)c3c(F)cccc3F)n2)c1` [Compound 2, N-[4-(2,5-Dimethoxy-phenyl)-thiazol-2-yl]-2,6-difluoro-benzamide] displayed an IC50 greater than 1000 nM.

For the molecule `CCOC(=O)c1nc(-c2sc(NC(=O)c3c(F)cccc3F)nc2C)cs1` [Compound 114a, Ethyl 2′-(2,6-difluorobenzamido)-4′-methyl-4,5′-bithiazole-2-carboxylate], the IC50 was greater than 1000 nM.

Take `Cc1nc(NC(=O)c2c(F)cccc2F)sc1-c1ccncc1` [Compound 54, 2,6-Difluoro-N-(4-methyl-5-(pyridin-4-yl)thiazol-2-yl)benzamide hydrobromide]: the IC50 is greater than 1000 nM.

`O=C(Nc1c(F)cccc1F)c1cnc(-c2cccc(C(F)(F)F)c2)s1` [Compound 123, N-(2,6-difluorophenyl)-2-(3-(trifluoromethyl)phenyl)thiazole-5-carboxamide] displayed an IC50 greater than 1000 nM.

`COC(=O)c1cccc(-c2sc(NC(=O)c3c(F)cccc3F)nc2C)c1` [Compound 8, 3-[2-(2,6-Difluoro-benzoylamino)-4-methyl-thiazol-5-yl]-benzoic acid methyl ester] showed an IC50 of 200 to 500 nM.

Take `O=C(Nc1c(F)cccc1F)c1ncc(-c2cccc(C(F)(F)F)c2)s1` [Compound 130, N-(2,6-difluorophenyl)-5-(3-(trifluoromethyl)phenyl)thiazole-2-carboxamide]: the IC50 was in the range of 100 to 200 nM.

Molecule `C=CCOc1ccc(C(F)(F)F)cc1-c1sc(NC(=O)c2c(F)cccc2F)nc1C(=C)C` [Compound 64, N-(5-(2-(Allyloxy)-5-(trifluoromethyl)phenyl)-4-(prop-1-en-2-yl)thiazol-2-yl)-2,6-difluorobenzamide] showed an IC50 greater than 1000 nM.

Molecule `Cc1cnccc1C(=O)Nc1nc(C(=O)O)c(-c2cccc(C(F)(F)F)c2)s1` [Compound 112, 2-(3-Methylisonicotinamido)-5-(3-(trifluoromethyl)phenyl)thiazole-4-carboxylic acid] registered an IC50 greater than 1000 nM.

`COc1ncc(Cl)cc1-c1ncc(C(=O)Nc2c(F)cccc2F)s1` [Compound 126, 2-(5-chloro-2-methoxypyridin-3-yl)-N-(2,6-difluorophenyl)thiazole-5-carboxamide]: the IC50 is greater than 1000 nM.

Turning to `Cc1ccc(-c2ncco2)cc1-c1ncc(C(=O)Nc2c(F)cccc2F)s1` [Compound 121, N-(2,6-difluorophenyl)-2-(2-methyl-5-(oxazol-2-yl)phenyl)thiazole-5-carboxamide], the concentration for half-maximal inhibition (IC50) fell in the range of 100 to 200 nM.

`O=C(Nc1nc(Cl)c(-c2cccc(C(F)(F)F)c2)s1)c1c(F)cccc1F` [Compound 103, N-(4-Chloro-5-(3-(trifluoromethyl)phenyl)thiazol-2-yl)-2,6-difluorobenzamide]: the IC50 lay within 200 to 500 nM.

The molecule `CCC(=O)c1nc(NC(=O)c2c(F)cccc2F)sc1-c1cccc(C(F)(F)F)c1` [Compound 94, 2,6-difluoro-N-(4-propionyl-5-(3-(trifluoromethyl)phenyl)thiazol-2-yl)benzamide] gave an IC50 of 50 to 100 nM.

The molecule `O=C(Nc1nc(C2=NCCN2)c(-c2cccc(C(F)(F)F)c2)s1)c1c(F)cccc1F` [Compound 77, N-(4-(4,5-Dihydro-1H-imidazol-2-yl)-5-(3-(trifluoromethyl)phenyl)thiazol-2-yl)-2,6-difluorobenzamide] had an IC50 greater than 1000 nM.

The molecule `CCOC(=O)c1nc(-c2nc(NC(=O)c3c(F)cccc3F)sc2-c2cccc(C(F)(F)F)c2)c(C)s1` [Compound 96, Ethyl 2′-(2,6-difluorobenzamido)-5-methyl-5′-(3-(trifluoromethyl)phenyl)-4,4′-bithiazole-2-carboxylate] returned an IC50 greater than 1000 nM.

Molecule `COc1ccc(OC)c(-c2sc(NC(=O)c3c(F)cccc3F)nc2C)c1` [Compound 55, N-(5-(2,5-Dimethoxyphenyl)-4-methylthiazol-2-yl)-2,6-difluorobenzamide] had an IC50 of 200 to 500 nM.

On to `O=C(O)c1nc(NC(=O)c2c(F)cccc2F)sc1-c1cccc(C(F)(F)F)c1` [Compound 66, 2-(2,6-difluorobenzamido)-5-(3-(trifluoromethyl)phenyl)thiazole-4-carboxylic acid], for which the IC50 was greater than 1000 nM.

Staying with this test, now noted: Homo sapiens, PHA 2.5 μg/mL, 20 hours, IL-2 ELISA.
For the molecule `Cc1nc(NC(=O)c2c(F)cccc2F)sc1-c1cccc(C(F)(F)F)c1` [Compound 48, Sodium (2,6-difluorobenzoyl)(4-methyl-5-(3-(trifluoromethyl)phenyl)thiazol-2-yl)amide], the IC50 lay in the range of 50 to 100 nM.

Broadly, the IC50 is the midpoint of a concentration-inhibition curve. Lower therefore signals higher potency.

The values above are taken from patent US8455658B2, “Thiazole and thiadiazole compounds for inflammation and immune-related uses” (Synta Pharmaceuticals Corp., priority 2006, dated 2013).
